Consider one compound from patent publication US20140161720A1, “TREATMENT OF ANGIOGENIC- OR VASCULAR-ASSOCIATED DISEASES” (THE GENERAL HOSPITAL CORPORATION, priority 2011, published 2014).

The assay has as its system orthotopic 4T1 mammary tumors. Kind of assay: Tumor growth delay study, 4T1. Type of assay: in vivo, female SCID mice. Conditions: 4T1 tumors, start ~200 mm^3, 37.5 mg/kg daily i.p. The protocol: To assess the anti-tumor effects of DAL, female SCID mice bearing orthotopic 4T1 or E0771 mammary tumors were treated with daily i.p. injections of 37.5 mg/kg DAL or saline. In order to calculate tumor volumes, the major and minor axis diameters were measured with calipers and the tumor volume was calculated by assuming a spherical shape based on the average of these two dimensions. The tumors were implanted in the mammary fat pad and allowed to grow to a starting size (small ˜100 mm^3 tumors for E0771, large ˜200 mm^3 tumors for 4T1) over ˜2 weeks. To ensure that tumors in the two groups were of similar growth rates, the treatment with saline or DAL was begun in pairs of tumors with similar sizes and growth times. Tumor volumes were measured every other day until the tumors reached an average of ˜10 mm in diameter. Tumor growth was quantified with the doubling rate, and calculated by fitting an exponential growth curve to the data for tumor size versus time.
As shown in Example 3, DAL has an antivascular effect in orthotopic mammary tumors in mice. Thus, the antitumor effect of DAL was next assessed. […] The effect of DAL on the growth of orthotopic 4T1 and E0771 mammary tumors with daily treatment of DAL or saline was evaluated (FIG. 4A). 37.5 mg/kg of DAL was used for these experiments based on the pharmacokinetics results as well as in vitro and in vivo data. […]

With `CC1(C)C=CC2=C(O1)C(=O)c1ccccc1C2=O` [DAL, dehydro-alpha-lapachone], the “tumor volume doubling time” value was 11.21 ± 3.53 days.
